Assay results as given in US12037324B2, “Biarylmethyl heterocycles” (Université de Montréal, priority 2016, dated 2024).
Where a name gives a salt, the structure may show the parent alone.

Tests used:
Format in all cases: cell-based
AGTR1 = target: T1, AGTR1 (Homo sapiens, UniProt P30556); assay: DiscoveRx β-arrestin2 recruitment assay (enzyme complementation, Pathunter CHO-K1 AGTR1 β-arrestin cell line); conditions: DiscoveRx β-arrestin2 recruitment; for DiscoveRx β-arrestin2 Ymax (%): maximal response
T1 construct: host or cells: Pathunter CHO-K1 AGTR1 β-arrestin cell line (CHO-K1)
T1 sequence (P30556 1-359): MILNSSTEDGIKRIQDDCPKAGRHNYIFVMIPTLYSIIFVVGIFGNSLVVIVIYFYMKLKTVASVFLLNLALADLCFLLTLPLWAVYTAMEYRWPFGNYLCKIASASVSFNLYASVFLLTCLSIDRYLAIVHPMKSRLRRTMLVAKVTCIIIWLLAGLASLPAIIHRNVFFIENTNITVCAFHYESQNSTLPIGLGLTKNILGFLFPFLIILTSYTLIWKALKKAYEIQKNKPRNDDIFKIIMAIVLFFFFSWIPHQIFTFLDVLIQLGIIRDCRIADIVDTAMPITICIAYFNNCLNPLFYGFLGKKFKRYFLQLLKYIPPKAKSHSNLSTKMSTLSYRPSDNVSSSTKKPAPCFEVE
Summary of the method: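 CHO-K1 cells expressing AGTR1 with β-arrestin2 enzyme-complementation reporter, plated 14-16 h ahead in 1% serum medium, then exposed to compounds for 90 min at 37° C. Chemiluminescence read after 1 h detection. EC50 (agonist) or IC50 (antagonist) from 4-parameter logistic fit; activity as percentage of All maximal effect.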

hAT1R [1] = target: T2, hAT1R (Homo sapiens, UniProt P30556); assay: BRET β-arrestin2 biosensor assay, higher receptor expression (hAT1R 5 ng/well), HEK293 cells; conditions: for EC50: High AT1R Expression
T2 sequence (P30556 1-359): T1 sequence (P30556 1-359)

hAT1R [2] = target: T2, hAT1R; assay: BRET Gq biosensor assay, agonist response, HEK293 cells; conditions: section of the 42nd table directly before the BRET P63 section
Summary of the method: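 HEK293 cells co-transfected with signal-peptide-optimized hAT1R plus Gαq-Rluc, Gβ1 and GFP-Gγ1, assayed 48 h later in Tyrode's buffer pH 7.4. Coelenterazine (2 μM final) added, then compound; BRET2 (515/410 nm) read after 5 min at room temperature. EC50 by 4-parameter fit, normalized to unstimulated (0%) and maximal AngII (100%).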

Row | SMILES | EC50 (AGTR1) | DiscoveRx β-arrestin2 Ymax (%) (AGTR1) | BRET β-Arrestin2 High AT1R Expression Ymax (%) (hAT1R [1]) | EC50 (hAT1R [1]) | EC50 (hAT1R [2])
1 | CCCCC(=O)N(Cc1ccc(-c2cc(Oc3ccccc3)ccc2-c2nn[nH]n2)cc1)C1(C(=O)O)CCCCC1 [Example 285, 1-(N-((5′-Phenoxy-2′-(2H-tetrazol-5-yl)-[1,1′-biphenyl]-4-yl)methyl)pentanamido)cyclohexanecarboxylic acid] | 66.4 nM | 24.8% | 33.4% | 57.3 nM | 1540 nM
2 | CCCCC(=O)N(Cc1ccc(-c2cc(Oc3cccnc3)ccc2-c2nn[nH]n2)cc1)C1(C(=O)O)CCCCC1 [Example 286] | 113 nM | 35.8% | 45.3% | 47.1 nM | 302 nM
3 | CCCCC(=O)N(Cc1ccc(-c2cc(Oc3cccc(OC(F)(F)F)c3)ccc2-c2nn[nH]n2)cc1)C1(C(=O)O)CCCCC1 [Example 287] | 175 nM | 30.5% | 45.9% | 54.1 nM | > 100000 nM
4 | CCCCC(=O)N(Cc1ccc(-c2cc(-c3cnn(C)c3)ccc2-c2nn[nH]n2)cc1)C1(C(=O)O)CCCCC1 [Example 288, 1-(N-((5′-(1-Methyl-1H-pyrazol-4-yl)-2′-(2H-tetrazol-5-yl)-[1,1′-biphenyl]-4-yl)methyl)pentanamido)cyclohexanecarboxylic acid] | 186 nM | 29.6% | 69.2% | 474 nM | > 100000 nM
5 | CCCCC(=O)N(Cc1ccc(-c2cc(-c3cc(F)cc(F)c3)ccc2-c2nn[nH]n2)cc1)C1(C(=O)O)CCCCC1 [Example 289] | 48.2 nM | 51.1% | 85.2% | 13 nM | 546 nM
6 | CCCCC(=O)N(Cc1ccc(-c2cc(-c3cccnc3OC)ccc2-c2nn[nH]n2)cc1)C1(C(=O)O)CCCCC1 [Example 290] | 88.5 nM | 30.7% | 31.2% | 67.3 nM | 503 nM
7 | CCCCC(=O)N(Cc1ccc(-c2cc(-c3ccc(NC(C)=O)cc3)ccc2-c2nn[nH]n2)cc1)C1(C(=O)O)CCCCC1 [Example 291] | 134 nM | 10.0% | 9.6% | 1650 nM | > 100000 nM
8 | CCCCC(=O)N(Cc1ccc(-c2cc(-c3ccc4ncccc4c3)ccc2-c2nn[nH]n2)cc1)C1(C(=O)O)CCCCC1 [Example 292] | 177 nM | 32.1% | 36.5% | 72.2 nM | > 100000 nM
9 | CCOc1nc2cccc(C(=O)O)c2n1Cc1ccc(-c2cc(N3CCCC(F)(F)C3)ccc2C(=O)O)cc1 [Example 315] | 242 nM | 21.5% | 29.1% | 1840 nM | > 100000 nM
10 | CCOc1nc2cccc(C(=O)OC)c2n1Cc1ccc(-c2cc(-c3ccccc3)ccc2-c2noc(=O)[nH]2)cc1 [Example 316, methyl 2-ethoxy-1-((6′-(5-oxo-4,5-dihydro-1,2,4-oxadiazol-3-yl)-[1,1′:3′,1″-terphenyl]-4-yl)methyl)-1H-benzo[d]imidazole-7-carboxylate] | 53 nM | 51.6% | 97.5% | 46.2 nM | > 100000 nM
11 | O=C(O)c1cccc2nc(O)n(Cc3ccc(-c4cc(-c5ccccc5)ccc4-c4nn[nH]n4)cc3)c12 [Example 317] | 87.2 nM | 51.5% | 39.8% | 319 nM | 17100 nM
12 | CCOc1nc2cccc(C(=O)O)c2n1Cc1ccc(-c2cc(-c3cccnc3OC)ccc2C(=O)O)cc1 [Example 318] | 47.5 nM | 54.6% | 93.9% | 132 nM | 552 nM
13 | CCOc1nc2cccc(C(=O)O)c2n1Cc1ccc(-c2cc(-c3ccc(C(=O)N(C)C)cc3)ccc2C(=O)O)cc1 [Example 320] | 40.7 nM | 55.7% | 86.8% | 173 nM | > 100000 nM
14 | CCOc1nc2cccc(C(=O)O)c2n1Cc1ccc(-c2cc(-c3ccc(C(=O)N(C)C)cc3)ccc2-c2noc(=O)[nH]2)cc1 [Example 321] | 56.8 nM | 83.4% | 86.7% | 108 nM | 47.9 nM
15 | CCOc1nc2cccc(C(=O)O)c2n1Cc1ccc(-c2cc(-c3cccnc3OC)ccc2-c2noc(=O)[nH]2)cc1 [Example 329] | 7.1 nM | 77.6% | 91.4% | 2.8 nM | 31.5 nM
16 | CCCCc1ncc(C(=O)O)n1Cc1ccc(-c2cc(-c3ccccc3)ccc2-c2nn[nH]n2)cc1 [Example 345, 1-((6′-(2H-tetrazol-5-yl)-[1,1′:3′,1″-terphenyl]-4-yl)methyl)-2-butyl-1H-imidazole-5-carboxylic acid, TFA salt] | 18.1 nM | 44.8% | 92.0% | 17.9 nM | 12.5 nM
17 | CCCCc1ncc(C(=O)N2CCCC2)n1Cc1ccc(-c2cc(-c3ccccc3)ccc2-c2nn[nH]n2)cc1 [Example 347] | 57.2 nM | 26.8% | 48.8% | 172 nM | 242 nM
18 | CCCCc1ncc(C(=O)NCCO)n1Cc1ccc(-c2cc(-c3ccccc3)ccc2-c2nn[nH]n2)cc1 [Example 348] | 7.3 nM | 50.9% | 85.4% | 34.3 nM | 89.2 nM
19 | CCCCc1ncc(C(=O)Nc2nc(C)cs2)n1Cc1ccc(-c2cc(-c3ccccc3)ccc2-c2nn[nH]n2)cc1 [Example 349] | 69.2 nM | 24.8% | 67.6% | 117 nM | 174 nM
20 | CCCCc1ncc(C(=O)NCCC(C)(C)O)n1Cc1ccc(-c2cc(-c3ccccc3)ccc2-c2nn[nH]n2)cc1 [Example 350] | 8.3 nM | 47.0% | 94.3% | 15.6 nM | 25.3 nM
21 | CCCCc1ncc(C(=O)NC2CC3(CCC3)C2)n1Cc1ccc(-c2cc(-c3ccccc3)ccc2-c2nn[nH]n2)cc1 [Example 351] | 18 nM | 45.4% | 89.6% | 38.9 nM | 81.1 nM
22 | CCCCc1ncc(C(=O)NC(C)(C)C)n1Cc1ccc(-c2cc(-c3ccccc3)ccc2-c2nn[nH]n2)cc1 [Example 352] | 234 nM | 35.7% | 62.2% | 290 nM | 1180 nM
23 | CCCCc1ncc(C(=O)Nc2ccncc2)n1Cc1ccc(-c2cc(-c3ccccc3)ccc2-c2nn[nH]n2)cc1 [Example 353] | 55 nM | 22.4% | 49.1% | 65.5 nM | 566 nM
24 | CCCCc1ncc(C(=O)NC2CCCCC2)n1Cc1ccc(-c2cc(-c3ccccc3)ccc2-c2nn[nH]n2)cc1 [Example 354] | 59.9 nM | 48.3% | 99.5% | 19.3 nM | 45.5 nM
25 | CCCCc1ncc(C(=O)NCc2cccnn2)n1Cc1ccc(-c2cc(-c3ccccc3)ccc2-c2nn[nH]n2)cc1 [Example 355] | 8.6 nM | 42.4% | 92.5% | 23.3 nM | > 1000 nM
26 | CCCCc1ncc(C(=O)NCc2nccs2)n1Cc1ccc(-c2cc(-c3ccccc3)ccc2-c2nn[nH]n2)cc1 [Example 356] | 27.3 nM | 41.5% | 84.7% | 17.7 nM | 36.7 nM
27 | CCCCc1ncc(C(=O)NCCC2CC2)n1Cc1ccc(-c2cc(-c3ccccc3)ccc2-c2nn[nH]n2)cc1 [Example 357] | 19.6 nM | 41.8% | 72.5% | 23.4 nM | 46.3 nM
28 | CCCCc1ncc(C(=O)NC2COC2)n1Cc1ccc(-c2cc(-c3ccccc3)ccc2-c2nn[nH]n2)cc1 [Example 358] | 10.1 nM | 40.2% | 88.8% | 21.4 nM | 44.7 nM
